Source: article PMC8615111, “Phenolic Thiazoles with Antioxidant and Antiradical Activity. Synthesis, In Vitro Evaluation, Toxicity, Electrochemical Behavior, Quantum Studies and Antimicrobial Screening” (Antioxidants, 2021)
Where two headings read alike, the source gives them in different places.

What was measured:
[1] = Ferric ions (Fe^3+) reducing antioxidant power by cyclic voltammetry
Protocol: The evaluated compounds’ stock solutions used were prepared at a concentration of 5 mM. To test their redox properties, dilutions of 0.5 mM and 2 mM were prepared in 0.1 M HClO4 electrolyte (pH = 1.2). Screen-printed electrodes (SPEs; Metrohm DropSens, Oviedo, Spain) (planar electrodes) with graphite and gold working electrodes were used. Cyclic voltammetry (CV) and differential pulse voltammetry (DPV) were the electrochemical methods applied. The experimental conditions for each test are mentioned near the corresponding data (Appendix A).
(§1) The antioxidant properties were evaluated in terms of their activity against some free radicals, and other compounds reported in the literature, relevant for this purpose, such as: • ferric ions (Fe^3+)—used to test the reduction of the antioxidant character of the compounds; • DPPH˙ free radical– used to test the scavenging effect of the compounds on this radical; • hydrogen peroxide (H2O2)—used to test the scavenging effect of the synthesized molecules on this compound; • 2,2,6,6-tetramethylpiperidinyl-1-oxy (TEMPO)—used to test the scavenging effect of the synthesized molecules on this compound.
This method is based on the evaluation of the influence of the compound measured by the direct reduction of Fe[(CN)6]^3− to […]. This assay is based on the reduction of Fe^3+ to Fe^2+ due to the action of antioxidants. Based on the electrochemical behavior of the studied compounds, the interaction of Fe^3+ was followed by cyclic voltammetry (CV) via the possible changes of redox peaks characteristic for Fe^3+/Fe^2+ transition after the interaction with antioxidants (if any).
From the voltammogram of potassium ferricyanide it can be observed that the one-electron transfer process Fe^3+/Fe^2+ occurs at 0.247 V/ 0.150 V in acidic media (red) (Figure A1; Table A1).
Each compound presents its characteristic peaks (blue line in each figure).

[2] = DPPH˙ radical scavenging by cyclic voltammetry
Protocol: as §1
The radical scavenging properties of the novel compounds and the other antioxidants were determined using a stock DPPH˙ radical solution prepared in absolute ethanol. The antioxidant samples were mixed with DPPH˙ solution and HClO4 electrolyte and incubated in the dark for 30 min. The remaining redox activity of DPPH was measured by cycling the potential between −0.7 V and 1.2 V, with a scan rate of 0.1 V/s.
The nitrogen-centered 2-2-diphenyl-1-picrylhydrazyl radical (DPPH˙) based assay is one of the most commonly employed method to evaluate the ability of a compound to scavenge or neutralize free radicals based on the reduction of the radical.
Taking into account the redox activity of DPPH˙, its diminution by an antioxidant can also be followed by CV, which is expected to show changes in the voltammetric peaks. Figure A5 reports the electrochemical study of initial electrooxidation of DPPH˙ and the novel compounds compared to remaining peaks after their incubation for 30 min. The decrease of all the peaks after mixture incubation indicates the partial consumption of DPPH˙.

[3] = TEMPO scavenging by differential pulse voltammetry; settings: 2 mM TEMPO, one hour incubation, 0.1 M HClO4, DPV
Method in brief: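 Scavenging of the stable nitroxide radical TEMPO by the compounds, measured as antioxidant activity by differential pulse voltammetry.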

E. coli ATCC 25922 = experiment: Antimicrobial activity, modified microdilution; type: cell-based; settings: Escherichia coli, ATCC25922
E. coli ATCC 8739 = experiment: Antimicrobial activity, modified microdilution; type: cell-based; settings: Escherichia coli, ATCC8739
P. aeruginosa ATCC 27853 = experiment: Antimicrobial activity, modified microdilution; type: cell-based; settings: Pseudomonas aeruginosa, ATCC27853
S. aureus ATCC 25923 = experiment: Antimicrobial activity, modified microdilution; type: cell-based; settings: Staphylococcus aureus, ATCC25923
S. enterica ISM 83/37 = experiment: Antimicrobial activity, modified microdilution; type: cell-based; settings: Salmonella enterica, ISM83/37
S. pyogenes ATCC 19615 = experiment: Antimicrobial activity, modified microdilution; type: cell-based; settings: Streptococcus pyogenes, ATCC19615
[4] = test system: S. typhimurium ATCC 14028; experiment: Antimicrobial activity, modified microdilution; type: cell-based; settings: Salmonella enterica
[5] = compound + Fe^3+/Fe^2+, 1st Ered
[6] = compound + Fe^3+/Fe^2+, 1st Ired
[7] = compound + Fe^3+/Fe^2+, 2nd Eox
[8] = compound + Fe^3+/Fe^2+, 2nd Iox column
[9] = compound alone 0.5 mM in 0.1 M HClO4, 2nd Iox column
[10] = compound alone 0.5 mM in 0.1 M HClO4, 3rd Eox column
[11] = compound alone 0.5 mM in 0.1 M HClO4, 3rd Iox column
[12] = compound alone 0.5 mM in 0.1 M HClO4, 1st Eox column
[13] = compound alone 0.5 mM in 0.1 M HClO4, 1st Iox column
[14] = compound alone, 2nd Ered column

Cl.Oc1ccc(/C=N/Nc2nc(-c3ccc(O)c(O)c3)cs2)c(O)c1 [Compound 8b, (E)-2-(2,4-dihydroxybenzylidene)-1-(4-(3,4-dihydroxyphenyl)thiazol-2-yl)hydrazin-1-ium chloride]
Eox (V) ([1]; compound 0.5 mM + Fe^3+/Fe^2+ (0.5 mM potassium ferricyanide), 1st Eox column): 0.083 V | Iox (μA) ([1]; compound 0.5 mM + Fe^3+/Fe^2+ (0.5 mM potassium ferricyanide), 1st Iox column): 0.34 μA | Ered (V) [1, 5]: 0.079 V | Ired (μA) [1, 6]: −8.01 μA | Eox (V) [1, 7]: 0.227 V | Ered (V) ([1]; compound + Fe^3+/Fe^2+, 2nd Ered column): 0.279 V | Iox (μA) [1, 8]: 28.09 μA | Ired (μA) ([1]; compound + Fe^3+/Fe^2+, 2nd Ired): −2.81 μA | Eox (V) ([1]; compound + Fe^3+/Fe^2+, 4th Eox column): 0.449 V | Iox (μA) ([1]; compound + Fe^3+/Fe^2+, 4th Iox column): 28.48 μA | Eox (V) ([1]; compound + Fe^3+/Fe^2+, 5th Eox): 0.79 V | Iox (μA) ([1]; compound + Fe^3+/Fe^2+, 5th Iox column): 15.19 μA | Eox (V) ([1]; compound alone 0.5 mM in 0.1 M HClO4, 2nd Eox): 0.249 V | Ered (V) ([1]; compound alone 0.5 mM in 0.1 M HClO4, 2nd Ered column): 0.303 V | Iox (μA) [1, 9]: 1.02 μA | Ired (μA) ([1]; compound alone 0.5 mM in 0.1 M HClO4, 2nd Ired): −1.97 μA | Eox (V) [1, 10]: 0.349 V | Iox (μA) [1, 11]: 1.76 μA | Eox (V) ([1]; compound alone 0.5 mM in 0.1 M HClO4, 4th Eox column): 0.450 V | Iox (μA) ([1]; compound alone 0.5 mM in 0.1 M HClO4, 4th Iox column): 2.29 μA | Eox (V) ([1]; compound alone 0.5 mM in 0.1 M HClO4, 5th Eox): 0.989 V | Iox (μA) ([1]; compound alone 0.5 mM in 0.1 M HClO4, 5th Iox column): 1.17 μA | Ered (V) ([2]; compound + DPPH, 30 min, 1st Ered): 0.259 V | Ired (μA) ([2]; compound + DPPH, 30 min, 1st Ired): −14.96 μA | Eox (V) ([2]; compound + DPPH, 30 min, 3rd Eox column): 0.457 V | Iox (μA) ([2]; compound + DPPH, 30 min, 3rd Iox column): 18.63 μA | Eox (V) ([2]; compound + DPPH, after 30 min of reaction, 1st Eox column): 0.247 V | Iox (μA) ([2]; compound + DPPH, after 30 min of reaction, 1st Iox column): 17.56 μA | Eox (V) [2, 12]: 0.259 V | Iox (μA) [2, 13]: 10.92 μA | Ered (V) [2, 14]: 0.127 V | Ired (μA) ([2]; compound alone, 2nd Ired): −3.52 μA | Eox (V) ([2]; compound alone, 3rd Eox column): 0.47 V | Iox (μA) ([2]; compound alone, 3rd Iox column): 29.61 μA | oxidation signal for TEMPO after incubation with the compound [3]: both the signal shift to higher oxidation potentials and its decrease | MIC (E. coli ATCC 25922; E. coli ATCC 25922, read-out: MIC): > 100 µg/mL | MIC (E. coli ATCC 8739; E. coli ATCC 8739, read-out: MIC): > 100 µg/mL | MIC (P. aeruginosa ATCC 27853; P. aeruginosa ATCC 27853, read-out: MIC): 31.2 µg/mL | MIC (S. aureus ATCC 25923; S. aureus ATCC 25923, read-out: MIC): > 100 µg/mL | MIC (S. enterica ISM 83/37): > 100 µg/mL | MIC (S. pyogenes ATCC 19615; S. pyogenes ATCC 19615, read-out: MIC): > 100 µg/mL | MIC ([4]; S. typhimurium ATCC 14028, read-out: MIC): > 100 µg/mL

Br.C/C(=N\Nc1nc(-c2ccccc2)cs1)c1ccc(O)cc1O [Compound 6a, (E)-2-(1-(2,4-dihydroxyphenyl)ethylidene)-1-(4-phenylthiazol-2-yl)hydrazin-1-ium bromide]
Ered (V) [1, 5]: 0.142 V | Ired (μA) [1, 6]: −5.88 μA | Eox (V) [1, 7]: 0.223 V | Iox (μA) [1, 8]: 2.74 μA | Eox (V) ([1]; compound + Fe^3+/Fe^2+, 3rd Eox column): 0.424 V | Iox (μA) ([1]; compound + Fe^3+/Fe^2+, 3rd Iox column): 3.82 μA | Iox (μA) [1, 9]: 3.04 μA | Eox (V) [1, 10]: 0.586 V | Iox (μA) [1, 11]: 6.79 μA | Iox (μA) ([2]; compound + DPPH, 30 min): 18.21 μA | Eox (V) ([2]; compound + DPPH, 30 min, 2nd Eox): 0.379 V | Eox (V) [2, 12]: 0.232 V | Iox (μA) [2, 13]: 4.99 μA | Ered (V) [2, 14]: 0.193 V | Ired (μA) ([2]; compound alone, 2nd Ired): −4.16 μA | Eox (V) ([2]; compound alone, 3rd Eox column): 0.565 V | Iox (μA) ([2]; compound alone, 3rd Iox column): 4.37 μA | oxidation signal for TEMPO after incubation with the compound [3]: does not decrease | MIC (E. coli ATCC 25922): > 100 µg/mL | MIC (E. coli ATCC 8739): > 100 µg/mL | MIC (P. aeruginosa ATCC 27853): 31.2 µg/mL | MIC (S. aureus ATCC 25923): > 100 µg/mL | MIC (S. enterica ISM 83/37): > 100 µg/mL | MIC (S. pyogenes ATCC 19615): > 100 µg/mL | MIC [4]: > 100 µg/mL
